# Measurements reported in ChEMBL document CHEMBL4808256, “Benzothiophene derivatives as selective estrogen receptor covalent antagonists: Design, synthesis and anti-ERα activities” (Bioorg Med Chem, 2021).
# Calls of active or inactive are those of the source. The rule behind the calls is not given here.
# Experiments:
# [1] = system: MCF7; assay: Antiproliferative activity against ER-positive human MCF7 cells assessed as inhibition of cell growth incubated for 48 hrs by CCK8 assay; format: functional, cell-based; details: MCF7, 48 h
# [2] = system: Ishikawa; assay: Antiproliferative activity against ER-positive human Ishikawa cells assessed as inhibition of cell growth incubated for 48 hrs by CCK8 assay; format: functional, cell-based
# [3] = target: T1, Estrogen receptor (Homo sapiens) (UniProt P03372); assay: Covalent antagonist activity at ERalpha in human MCF7 cells assessed as reduction in E2-stimulated TFF1 gene expression at 1.25 to 10 uM incubated for 24 hrs by RT-PCR analysis; format: cell-based; details: filed as antagonist, dose 1.25-10 µM
# T1 sequence (whole entry): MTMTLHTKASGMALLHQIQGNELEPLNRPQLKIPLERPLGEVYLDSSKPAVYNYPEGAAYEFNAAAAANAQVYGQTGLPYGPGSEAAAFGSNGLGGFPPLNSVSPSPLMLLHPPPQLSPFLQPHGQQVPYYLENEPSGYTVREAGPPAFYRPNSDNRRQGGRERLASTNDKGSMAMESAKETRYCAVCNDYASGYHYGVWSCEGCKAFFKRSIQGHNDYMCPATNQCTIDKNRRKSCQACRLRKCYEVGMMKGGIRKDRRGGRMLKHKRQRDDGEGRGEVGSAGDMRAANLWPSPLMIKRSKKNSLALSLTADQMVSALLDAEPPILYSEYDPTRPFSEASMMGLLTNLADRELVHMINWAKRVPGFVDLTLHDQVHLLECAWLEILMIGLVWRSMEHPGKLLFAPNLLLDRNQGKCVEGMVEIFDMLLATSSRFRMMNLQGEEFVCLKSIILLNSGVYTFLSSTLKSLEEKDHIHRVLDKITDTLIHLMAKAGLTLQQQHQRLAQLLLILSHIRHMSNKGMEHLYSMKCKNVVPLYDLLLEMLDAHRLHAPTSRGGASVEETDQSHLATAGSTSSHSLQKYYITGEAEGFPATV
# [4] = system: MCF7; assay: Induction of cell cycle arrest in human MCF7 cells assessed as accumulation at S phase at 10 uM by propidium iodide staining based flow cytometric analysis (reference value: 63.32%); format: functional
# [5] = target: T1, Estrogen receptor (Homo sapiens); assay: Covalent antagonist activity at ERalpha in human MCF7 cells assessed as reduction in E2-stimulated GREB1 gene expression at 1.25 to 10 uM incubated for 24 hrs by RT-PCR analysis; format: cell-based; details: filed as antagonist, dose 1.25-10 µM
# [6] = system: MCF7; assay: Induction of cell cycle arrest in human MCF7 cells assessed as accumulation at S phase at 5 uM by propidium iodide staining based flow cytometric analysis (reference value: 63.32%); format: functional
# [7] = system: Ishikawa; assay: Induction of cell proliferation in human ishikawa cells at 156 to 5000 nM measured after 2 days; format: cell-based; details: 48 h, 5 µM, dose 156-5000 nM, time 2 day
# [8] = target: T1, Estrogen receptor (Homo sapiens); assay: Antagonist activity at ERalpha receptor in human ishikawa cells assessed as suppression of E2-stimulated PGR expression at 1.25 to 10 uM by RT-PCR analysis; format: cell-based; details: filed as antagonist, dose 1.25-10 µM
# [9] = system: MCF7; assay: Induction of cell cycle arrest in human MCF7 cells assessed as accumulation at S phase at 1 uM by propidium iodide staining based flow cytometric analysis (reference value: 63.32%); format: functional
# [10] = system: MCF7; assay: Induction of cell cycle arrest in human MCF7 cells assessed as accumulation at G0/G1 phase at 5 uM by propidium iodide staining based flow cytometric analysis (reference value: 24.44%); format: functional
# [11] = system: MCF7; assay: Induction of cell cycle arrest in human MCF7 cells assessed as accumulation at G0/G1 phase at 1 uM by propidium iodide staining based flow cytometric analysis (reference value: 24.44%); format: functional
# [12] = system: MCF7; assay: Induction of cell cycle arrest in human MCF7 cells assessed as accumulation at G0/G1 phase at 10 uM by propidium iodide staining based flow cytometric analysis (reference value: 24.44%); format: functional
# [13] = system: MCF7; assay: Induction of apoptosis in human MCF7 cells assessed as viable cells at 1 uM by AnnexinV-FITC/propidium iodide staining based flow cytometry (reference value: 96.1%); format: functional; details: read-out: Activity
# [14] = system: MCF7; assay: Induction of apoptosis in human MCF7 cells assessed as viable cells at 5 uM by AnnexinV-FITC/propidium iodide staining based flow cytometry (reference value: 96.1%); format: functional; details: read-out: Activity
# [15] = system: MCF7; assay: Induction of apoptosis in human MCF7 cells assessed as viable cells at 10 uM by AnnexinV-FITC/propidium iodide staining based flow cytometry (reference value: 96.1%); format: functional; details: read-out: Activity
# [16] = system: MDA-MB-231; assay: Antiproliferative activity against ER-negative human MDA-MB-231 cells assessed as inhibition of cell growth incubated for 48 hrs by CCK8 assay; format: functional, cell-based; details: MDA-MB-231, 48 h
# [17] = system: MCF7; assay: Potency index, ratio of raloxifene IC50 to test compound IC50 for antiproliferative activity against ER-positive human MCF7 cells; format: functional
# [18] = system: MCF7; assay: Downregulation of ERalpha protein expression in human MCF7 cells at 5 uM incubated for 24 hrs by DAPI staining based immunofluorescence microscopy; format: functional, cell-based
# [19] = system: MCF7; assay: Induction of cell cycle arrest in human MCF7 cells assessed as accumulation at G2/M phase at 1 uM by propidium iodide staining based flow cytometric analysis (reference value: 12.24%); format: functional
# [20] = system: MCF7; assay: Induction of cell cycle arrest in human MCF7 cells assessed as accumulation at G2/M phase at 5 uM by propidium iodide staining based flow cytometric analysis (reference value: 12.24%); format: functional
# [21] = system: MCF7; assay: Induction of cell cycle arrest in human MCF7 cells assessed as accumulation at G2/M phase at 10 uM by propidium iodide staining based flow cytometric analysis (reference value: 12.24%); format: functional
# [22] = system: MCF7; assay: Induction of apoptosis in human MCF7 cells assessed as early apoptotic cells at 1 uM by AnnexinV-FITC/propidium iodide staining based flow cytometry (reference value: 0.8%); format: functional
# [23] = system: MCF7; assay: Induction of apoptosis in human MCF7 cells assessed as early apoptotic cells at 5 uM by AnnexinV-FITC/propidium iodide staining based flow cytometry (reference value: 0.8%); format: functional
# [24] = system: MCF7; assay: Induction of apoptosis in human MCF7 cells assessed as early apoptotic cells at 10 uM by AnnexinV-FITC/propidium iodide staining based flow cytometry (reference value: 0.8%); format: functional
# [25] = system: MCF7; assay: Induction of apoptosis in human MCF7 cells assessed as late apoptotic cells at 1 uM by AnnexinV-FITC/propidium iodide staining based flow cytometry (reference value: 0.7%); format: functional
# [26] = system: MCF7; assay: Induction of apoptosis in human MCF7 cells assessed as late apoptotic cells at 5 uM by AnnexinV-FITC/propidium iodide staining based flow cytometry (reference value: 0.7%); format: functional
# [27] = system: MCF7; assay: Induction of apoptosis in human MCF7 cells assessed as late apoptotic cells at 10 uM by AnnexinV-FITC/propidium iodide staining based flow cytometry (reference value: 0.7%); format: functional
# [28] = system: MCF7; assay: Induction of apoptosis in human MCF7 cells assessed as necrotic cells at 1 uM by AnnexinV-FITC/propidium iodide staining based flow cytometry (reference value: 0.4%); format: functional
# [29] = system: MCF7; assay: Induction of apoptosis in human MCF7 cells assessed as necrotic cells at 5 uM by AnnexinV-FITC/propidium iodide staining based flow cytometry (reference value: 0.4%); format: functional
# [30] = system: MCF7; assay: Induction of apoptosis in human MCF7 cells assessed as necrotic cells at 10 uM by AnnexinV-FITC/propidium iodide staining based flow cytometry (reference value: 0.4%); format: functional
structure (smiles),measurement,setting,value
O=C(c1ccc(OCCNC/C=C/C(=O)N2CCC2)cc1)c1c(-c2ccc(O)cc2)sc2cc(O)ccc12,IC50,[1],24.2 µM
same,IC50,[2],29.6 µM
O=C(c1ccc(OC2CN(C/C=C/C(=O)N3CCC3)C2)cc1)c1c(-c2ccc(O)cc2)sc2cc(O)ccc12,IC50,[1],23.3 µM
same,IC50,[2],25.8 µM
C=CC(=O)N1CCN(c2ccc(C(=O)c3c(-c4ccc(O)cc4)sc4cc(O)ccc34)cc2)CC1,IC50,[1],> 50 µM
same,IC50,[2],> 100 µM
O=C(c1ccc(OCCN2CCCCC2)cc1)c1c(-c2ccc(O)cc2)sc2cc(O)ccc12 [RALOXIFENE],IC50,[1],21.9 µM
same,IC50,[2],28.4 µM
C=C(C)C(=O)N1CCN(c2ccc(C(=O)c3c(-c4ccc(O)cc4)sc4cc(O)ccc34)cc2)CC1,IC50,[1],> 50 µM
same,IC50,[2],> 100 µM
O=C(c1ccc(OC2CN(C/C=C/C(=O)N3CCCCC3)C2)cc1)c1c(-c2ccc(O)cc2)sc2cc(O)ccc12,IC50,[1],1.31 µM
same,IC50,[2],10.3 µM
same,inhibition,[3],Active
same,Activity,[4],49.43%
same,inhibition,[5],Active
same,Activity,[6],54.23%
same,Activity,[7],Non-Toxic
same,inhibition,[8],Active
same,Activity,[9],57.31%
same,Activity,[10],32.84%
same,Activity,[11],28.53%
same,Activity,[12],38.85%
same,viability at 1 µM,[13],87.1%
same,viability at 5 µM,[14],77.4%
same,viability at 10 µM,[15],66.3%
same,IC50,[16],> 50 µM
same,Ratio IC50,[17],20
same,inhibition,[18],Active
same,Activity,[19],14.1%
same,Activity,[20],12.93%
same,Activity,[21],11.72%
same,Activity,[22],8.3%
same,Activity,[23],11.5%
same,Activity,[24],16.6%
same,Activity,[25],3.4%
same,Activity,[26],9.7%
same,Activity,[27],15.8%
same,Activity,[28],1.2%
same,Activity,[29],1.4%
same,Activity,[30],1.3%
COCCNC(=O)/C=C/CNCCOc1ccc(C(=O)c2c(-c3ccc(O)cc3)sc3cc(O)ccc23)cc1,IC50,[1],42.8 µM
same,IC50,[2],55.3 µM
O=C(c1ccc(OCCNC/C=C/C(=O)N2CCCCC2)cc1)c1c(-c2ccc(O)cc2)sc2cc(O)ccc12,IC50,[1],11.5 µM
same,IC50,[2],6.34 µM
CN(C)C(=O)/C=C/CNCCOc1ccc(C(=O)c2c(-c3ccc(O)cc3)sc3cc(O)ccc23)cc1,IC50,[1],> 50 µM
same,IC50,[2],48.4 µM
CNC(=O)/C=C/CN1CC(Oc2ccc(C(=O)c3c(-c4ccc(O)cc4)sc4cc(O)ccc34)cc2)C1,IC50,[1],11.3 µM
same,IC50,[2],45 µM
same,IC50,[16],> 50 µM
C=CC(=O)N1CC(Oc2ccc(C(=O)c3c(-c4ccc(O)cc4)sc4cc(O)ccc34)cc2)C1,IC50,[1],31.3 µM
same,IC50,[2],16.6 µM
C=C(C)C(=O)NCCOc1ccc(C(=O)c2c(-c3ccc(O)cc3)sc3cc(O)ccc23)cc1,IC50,[1],28.7 µM
same,IC50,[2],29.2 µM
O=C(c1ccc(OC2CN(CCCC(=O)N3CCCCC3)C2)cc1)c1c(-c2ccc(O)cc2)sc2cc(O)ccc12,IC50,[1],> 50 µM
same,IC50,[2],> 50 µM
same,IC50,[16],> 50 µM
CN(C)C(=O)/C=C/CN1CC(Oc2ccc(C(=O)c3c(-c4ccc(O)cc4)sc4cc(O)ccc34)cc2)C1,IC50,[1],29.3 µM
same,IC50,[2],29.6 µM
CC/C(=C(\c1ccccc1)c1ccc(OCCN(C)C)cc1)c1ccccc1 [TAMOXIFEN],IC50,[2],14.6 µM
C=CC(=O)NCCOc1ccc(C(=O)c2c(-c3ccc(O)cc3)sc3cc(O)ccc23)cc1,IC50,[1],37.1 µM
same,IC50,[2],> 100 µM
O=C(c1ccc(OCCNC/C=C/C(=O)N2CCCC2)cc1)c1c(-c2ccc(O)cc2)sc2cc(O)ccc12,IC50,[1],24.2 µM
same,IC50,[2],46.1 µM
C=C(C)C(=O)N1CC(Oc2ccc(C(=O)c3c(-c4ccc(O)cc4)sc4cc(O)ccc34)cc2)C1,IC50,[1],23.1 µM
same,IC50,[2],22.6 µM
CNC(=O)/C=C/CNCCOc1ccc(C(=O)c2c(-c3ccc(O)cc3)sc3cc(O)ccc23)cc1,IC50,[1],13.1 µM
same,IC50,[2],50.9 µM
same,IC50,[16],> 50 µM
C/C=C/C(=O)N1CC(Oc2ccc(C(=O)c3c(-c4ccc(O)cc4)sc4cc(O)ccc34)cc2)C1,IC50,[1],23.7 µM
same,IC50,[2],22.2 µM
CC/C(=C(\c1ccc(O)cc1)c1ccc(OCCN(C)C)cc1)c1ccccc1 [AFIMOXIFENE],Activity,[7],Toxic
O=C(c1ccc(OCCNC/C=C/C(=O)N2CCOCC2)cc1)c1c(-c2ccc(O)cc2)sc2cc(O)ccc12,IC50,[1],8.41 µM
same,IC50,[2],24.9 µM
same,IC50,[16],> 50 µM
C/C=C/C(=O)NCCOc1ccc(C(=O)c2c(-c3ccc(O)cc3)sc3cc(O)ccc23)cc1,IC50,[1],> 50 µM
same,IC50,[2],> 100 µM
O=C(c1ccc(OC2CN(C/C=C/C(=O)N3CCOCC3)C2)cc1)c1c(-c2ccc(O)cc2)sc2cc(O)ccc12,IC50,[1],5.72 µM
same,IC50,[2],18.4 µM
same,Ratio IC50,[17],4
